# Square brackets hold non-standard residues; d marks the D form. Peptide text beside a SMILES is read from it. Ac6c = NC1(C(=O)O)CCCCC1
# Legend:
# [1] = type: in vitro ADME, CD-1 mice
# Experimental: Female CD-1 mice of 8 weeks were retroorbitally bled and 6 μg A3-APO peptide dissolved in 10 μL phosphate buffered saline (PBS) was immediately added to approximately 100 μL retrieved blood. After 30 min incubation at 37° C., the cells were removed by 10 min centrifugation at 2,000 rpm, 50 μL PBS was added to 50 μL of the plasma, followed by addition of 45 μL of 15% TCA. The rest of the analysis was done as described for the serum stability studies. Control blood was treated identically without A3-APO peptide addition. […] While the double charged ion at 2519 M/z from the serum studies could not be detected, the two serum components at 1798 and 2969 M/z and two new peaks at 2321 and 2577 M/z were present. These latter peptide species correspond to stable early degradation products.
# Ex vivo blood stability studies were repeated on Chex1-Arg20 according to the protocol described above “Stability of Peptide A3-APO in Whole Blood”. […] The only degradation product that could be detected, at about one third of the peak height of the Chex1-Arg20 starting material, was at 2321 M/z, representing a fragment with the C-terminal arginine missing. Apparently this cleavage product is the Chex1-Val19 fragment observed for peptide A3-APO when the stability studies were done in blood ex vivo (see and compare with the lower panel of FIG. 2 and Table 1). […]
# E. coli HK179 = conditions: HK179, 16 h
# E. coli SEQ102 = conditions: SEQ102, 16 h
# [2] = system: Enterobacteriaceae strains
# K. pneumoniae HK123 = conditions: HK123, 16 h
# [3] = system: Escherichia coli isolates
# [4] = system: Salmonella typhimurium isolates; conditions: murium isolates
smiles,measurement,setting,value
"CC(C)C[C@H](NC(=O)[C@H](Cc1ccc(O)cc1)NC(=O)[C@@H]1CCCN1C(=O)[C@H](CCCNC(=N)N)NC(=O)[C@@H]1CCCN1C(=O)[C@H](CCCCN)NC(=O)[C@H](CC(=O)O)NC(=O)[C@@H]1CCCN1C(=O)[C@H](CCCNC(=N)N)NC(=O)C1(N)CCCCC1)C(=O)N1CCC[C@H]1C(=O)N[C@@H](CCCNC(=N)N)C(=O)N1CCC[C@H]1C(=O)N[C@@H](CCCNC(=N)N)C(=O)N1CCC[C@H]1C(=O)N1CCC[C@H]1C(=O)N[C@@H](CCCNC(=N)N)C(=O)N1CCC[C@H]1C(=O)N[C@H](C(=O)N[C@@H](CCCNC(=N)N)C(=O)O)C(C)C [Chex1-Arg20, Chex-Arg-Pro-Asp-Lys-Pro-Arg-Pro-Tyr-Leu-Pro-Arg-Pro-Arg--Pro-Pro-Arg-Pro-Val-Arg] (H-[Ac6c]RPDKPRPYLPRPRPPRPVR-OH; N-terminus and C-terminus assumed)",peak height of the only degradation product (2321 M/z) relative to starting material,[1],about one third
same,MIC against E. coli HK179,E. coli HK179,2 µg/mL
same,MIC against E. coli SEQ102,E. coli SEQ102,32 µg/mL
same,IC50,[2],100 to 500 nM
same,activity relative to A3-APO in milligram/L terms,[2]; on average,twice as active
same,activity relative to A3-APO in molar terms,[2]; on average,5 times
same,potency in killing resistant bacteria relative to A3-APO,"[2]; overall, Table 3",twice as potent
same,MIC against K. pneumoniae HK123,K. pneumoniae HK123,8 µg/mL
same,minimal bactericidal concentrations (MBC),[3],2 to 32 µg/mL
same,minimal bactericidal concentrations (MBC),[4],4 µg/mL

# From patent publication US8492515B2 (priority 2008, dated 2013)
